# According to patent US20050233973A1, “Tri-peptides for antidepressant applications” (priority 1997, published 2005):
# Non-standard residues stand in square brackets, D forms with d. Residues, ends and D or L forms follow the SMILES beside them. pGlu = O=C1CC[C@@H](C(=O)O)N1
# Target: TRH receptor-2 (TRHR-2)
# Assay: competition with 2 nM [^3H]TRH on HEK293 cells expressing TRHR-2
# Details: not given
row,Compound,IC50 [mg/L]
1,[pGlu]-Ser-Pro-NH2,12.3
2,[pGlu]-Thr-Pro-NH2,> 100
3,[pGlu]-Tyr-Pro-NH2,> 100
4,[pGlu]-Val-Pro-NH2,> 100
5,"pGlu-His-Pro-NH2, thyrotropin releasing hormone (TRH) (peptide)",0.0088

# Tested on: pentobarbital-anesthetized rats
# Assay: not given
# Format: in vivo, male Wistar rats
# Details: IC injection of 1 μg
# Method: Twenty minutes after loss of the righting reflex, 10 μL of either sterile saline or peptide of this invention (1 or 10 μg/10 μL sterile saline) was administered by intracisternal (IC) injection. The time from IC injection to recovery of the righting reflex, as measured three times within 10 seconds, was recorded.
row,Compound,reduction in pentobarbitol-induced sleep time (analeptic effect)
1,"NC(=O)[C@@H]1CCCN1C(=O)[C@H](Cc1cnc[nH]1)NC(=O)[C@@H]1CCC(=O)N1 [TRH, pGlu-His-Pro-NH2, reference compound]",did not result in a significant reduction

# Same assay, conditions: IC injection of 10 μg
row,Compound,reduction in pentobarbitol-induced sleep time (analeptic effect)
1,"NC(=O)[C@@H]1CCCN1C(=O)[C@H](Cc1cnc[nH]1)NC(=O)[C@@H]1CCC(=O)N1 [TRH, pGlu-His-Pro-NH2, reference compound]",had an analeptic effect

# Same assay, conditions: rat, in vivo
row,Compound,"""wet dog"" shaking while still anesthetized"
1,"NC(=O)[C@@H]1CCCN1C(=O)[C@H](Cc1cnc[nH]1)NC(=O)[C@@H]1CCC(=O)N1 [TRH, pGlu-His-Pro-NH2, reference compound]",frequently accompanied by “wet dog” shaking

# Tested on: EEP (R^2=Glu) antibody (580B6)
# Assay: not given
# Details: not given
row,Compound,relative potency for displacement of assay tracer
1,"NC(=O)CC[C@H](NC(=O)[C@@H]1CCC(=O)N1)C(=O)N1CCC[C@H]1C(N)=O [R^2 = Gln, reference compound] ([pGlu]-Gln-Pro-NH2)",1.00

# Same assay, conditions: tracer 125I-TRH; assay standard = 1.00
row,Compound,relative potency for displacement of assay tracer
1,"NC(=O)[C@@H]1CCCN1C(=O)[C@H](Cc1cnc[nH]1)NC(=O)[C@@H]1CCC(=O)N1 [TRH, pGlu-His-Pro-NH2, reference compound]",2.91

# Tested on: CR-V3-B53 antibody (raised to TRH)
# Assay: not given
# Details: not given
row,Compound,relative potency for displacement of assay tracer
1,"NC(=O)CC[C@H](NC(=O)[C@@H]1CCC(=O)N1)C(=O)N1CCC[C@H]1C(N)=O [R^2 = Gln, reference compound] ([pGlu]-Gln-Pro-NH2)",0.0055

# Same assay, conditions: tracer 125I-TRH; assay standard = 1.00
row,Compound,relative potency for displacement of assay tracer
1,"NC(=O)[C@@H]1CCCN1C(=O)[C@H](Cc1cnc[nH]1)NC(=O)[C@@H]1CCC(=O)N1 [TRH, pGlu-His-Pro-NH2, reference compound]",1.00

# Target: TRH receptor-1 (TRHR-1)
# Assay: competition with 2 nM [^3H]TRH on HEK293 cells expressing TRHR-1
# Details: not given
row,Compound,IC50 [mg/L]
1,[pGlu]-Ser-Pro-NH2,21.7
2,[pGlu]-Thr-Pro-NH2,> 100
3,[pGlu]-Tyr-Pro-NH2,> 100
4,[pGlu]-Val-Pro-NH2,> 100
5,"pGlu-His-Pro-NH2, thyrotropin releasing hormone (TRH) (peptide)",0.0085

# Tested on: not given
# Assay: not given
# Details: 50 micrograms given at bedtime; reduced from 12; cited from earlier work
row,Compound,required numbers of ECTs
1,"N[C@@H](Cc1cc(I)c(Oc2ccc(O)c(I)c2)c(I)c1)C(=O)O [T3, liothyronine]",7

# Tested on: 465B12 antibody (raised to TRH)
# Assay: not given
# Details: not given
row,Compound,relative potency for displacement of assay tracer
1,"NC(=O)CC[C@H](NC(=O)[C@@H]1CCC(=O)N1)C(=O)N1CCC[C@H]1C(N)=O [R^2 = Gln, reference compound] ([pGlu]-Gln-Pro-NH2)",0.0225

# Same assay, conditions: tracer 125I-TRH; assay standard = 1.00
row,Compound,relative potency for displacement of assay tracer
1,"NC(=O)[C@@H]1CCCN1C(=O)[C@H](Cc1cnc[nH]1)NC(=O)[C@@H]1CCC(=O)N1 [TRH, pGlu-His-Pro-NH2, reference compound]",1.00

# Target: T1, TRH receptor-2 (TRHR-2) (Rattus norvegicus, UniProt A6IZR3)
# T1 sequence (A6IZR3 1-352): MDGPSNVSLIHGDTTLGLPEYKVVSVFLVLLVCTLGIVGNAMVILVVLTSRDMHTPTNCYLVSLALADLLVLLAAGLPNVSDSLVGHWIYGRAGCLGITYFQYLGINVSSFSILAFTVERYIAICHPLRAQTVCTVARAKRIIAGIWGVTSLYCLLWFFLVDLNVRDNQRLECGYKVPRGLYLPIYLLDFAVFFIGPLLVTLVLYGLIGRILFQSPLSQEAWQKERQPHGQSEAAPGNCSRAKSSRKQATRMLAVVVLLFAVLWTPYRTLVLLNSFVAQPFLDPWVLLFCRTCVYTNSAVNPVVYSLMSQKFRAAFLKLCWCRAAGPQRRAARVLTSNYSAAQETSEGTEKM
# Assay: [3H]TRH competition binding, HEK293 cells expressing TRHR-2
# Details: not given
row,Compound,IC50 [µM]
1,"N=C(N)NCCC[C@H](NC(=O)[C@@H]1CCC(=O)N1)C(=O)N1CCC[C@H]1C(N)=O [Arg, reference compound] ([pGlu]-Arg-Pro-NH2)",> 262
2,"NC(=O)CC[C@H](NC(=O)[C@@H]1CCC(=O)N1)C(=O)N1CCC[C@H]1C(N)=O [R^2 = Gln, reference compound] ([pGlu]-Gln-Pro-NH2)",21.4
3,"NC(=O)[C@@H]1CCCN1C(=O)[C@H](CO)NC(=O)[C@@H]1CCC(=O)N1 [Ser, reference compound] ([pGlu]-Ser-Pro-NH2)",39.4
4,"NC(=O)[C@@H]1CCCN1C(=O)[C@H](Cc1cnc[nH]1)NC(=O)[C@@H]1CCC(=O)N1 [TRH, pGlu-His-Pro-NH2, reference compound]",0.0243
5,"C[C@@H](O)[C@H](NC(=O)[C@@H]1CCC(=O)N1)C(=O)N1CCC[C@H]1C(N)=O [Thr, reference compound] ([pGlu]-Thr-Pro-NH2)",> 306

# Target: T2, TRH receptor-1 (TRHR-1) (Mus musculus, UniProt P21761)
# T2 sequence (P21761 1-393): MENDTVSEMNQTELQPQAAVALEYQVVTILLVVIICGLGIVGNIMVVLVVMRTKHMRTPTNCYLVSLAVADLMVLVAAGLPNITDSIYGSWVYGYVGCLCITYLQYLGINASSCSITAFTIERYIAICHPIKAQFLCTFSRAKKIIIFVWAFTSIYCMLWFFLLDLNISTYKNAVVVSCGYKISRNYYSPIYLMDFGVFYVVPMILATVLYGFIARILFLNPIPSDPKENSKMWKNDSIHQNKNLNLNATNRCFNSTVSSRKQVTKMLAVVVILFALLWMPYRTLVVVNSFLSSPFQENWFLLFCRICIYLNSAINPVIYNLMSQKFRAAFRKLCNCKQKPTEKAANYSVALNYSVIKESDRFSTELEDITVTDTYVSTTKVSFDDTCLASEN
# Assay: [3H]TRH competition binding, HEK293 cells expressing TRHR-1
# Details: not given
row,Compound,IC50 [µM]
1,"N=C(N)NCCC[C@H](NC(=O)[C@@H]1CCC(=O)N1)C(=O)N1CCC[C@H]1C(N)=O [Arg, reference compound] ([pGlu]-Arg-Pro-NH2)",> 262
2,"NC(=O)CC[C@H](NC(=O)[C@@H]1CCC(=O)N1)C(=O)N1CCC[C@H]1C(N)=O [R^2 = Gln, reference compound] ([pGlu]-Gln-Pro-NH2)",27.7
3,"NC(=O)[C@@H]1CCCN1C(=O)[C@H](CO)NC(=O)[C@@H]1CCC(=O)N1 [Ser, reference compound] ([pGlu]-Ser-Pro-NH2)",69.5
4,"NC(=O)[C@@H]1CCCN1C(=O)[C@H](Cc1cnc[nH]1)NC(=O)[C@@H]1CCC(=O)N1 [TRH, pGlu-His-Pro-NH2, reference compound]",0.0235
5,"C[C@@H](O)[C@H](NC(=O)[C@@H]1CCC(=O)N1)C(=O)N1CCC[C@H]1C(N)=O [Thr, reference compound] ([pGlu]-Thr-Pro-NH2)",> 306

# Tested on: control HEK293 cells
# Assay: Intracellular calcium response (fura2), non-transfected control cells
# Format: cell-based
# Details: Ca2+-free buffer
# Method: The ability of peptides of the formula pGlu-[…] to stimulate an intracellular calcium response in transfected HEK293 of Example 5 was evaluated, to determine whether the peptides behave as agonists. […] The coverslip was then rinsed and placed in a Sykes-Moore chamber covered with 1 mL Ca^2+ and Mg^2+ free HBSS. Imaging was performed on a Nikon inverted microscope with a DAGE CCD72 camera and […] intensifier system. Cells were alternately excited at 340 and 380 nm and emission was measured at 490 nm; 340/380 ratios were obtained every 1.2 seconds and analyzed using Image-1 software from Universal Imaging Corporation. […] Peak responses from between 33 and 120 individual cells were averaged, and responses to TRH were measured with each set of cells as a standard. Most of the peptides caused a small increase in intracellular Ca^2+ when added to control HEK293 cells bathed in Ca^2+-containing medium, but with the exception of the R^2=Leu peptide, none of them evoked an appreciable Ca^2+ response in Ca^2+-free HBSS, which was used for all experiments.
row,Compound,Ca2+ response
1,"NC(=O)[C@@H]1CCCN1C(=O)[C@H](Cc1cnc[nH]1)NC(=O)[C@@H]1CCC(=O)N1 [TRH, pGlu-His-Pro-NH2, reference compound]",no response
